# Results as given in patent publication US20070073039A1, “Peptides that inhibit viral infections” (priority 2005, published 2007).
# Where two headings read alike, the source gives them in different places.
# How the values were obtained:
# HCV [1] = experiment: Median effective concentration (EC50) by intracellular HCV RNA RT-QPCR; type: cell-based, Hepatitis C virus (JFH-1); settings: FIG. 12B-C; Huh-7.5.1 cells, MOI 0.1; 3 days; read-out: EC50 of the L- and D-forms of peptide 1
# Experimental: (§1) To determine the median effective concentration (EC50) of peptide #1, peptide stock solution (3.6 mM in DMSO) was serially 2-fold diluted in DMSO. An aliquot of peptide from each dilution was then diluted 1:100 in complete growth medium and mixed with equal volume of virus supernatant. The virus-peptide mixture was then used to infect Huh-7.5.1 cells (MOI=0.1). After adsorption for 4 hours at 37° C., the virus-peptide inoculum was removed. The cells were washed 2 times, overlaid with 120 μL fresh growth medium and incubated at 37° C. for 3 days. Cells were lysed and subjected to RNA analysis. The HCV RNA transcript level was measured by real time RT-QPCR and normalized to cellular GAPDH levels. The inhibition of HCV infection was calculated by comparing the intracellular HCV RNA transcript between the peptide treatment and solvent control.
# as §1, with “(EC50) of the L- and D-form” for “(EC50)”, “serially diluted” for “serially”, “2-fold” for “2-fold diluted”
# [2] = Serum stability of L- and D-type peptides (10% FBS, 37° C., antiviral readout); type: in vitro ADME
# From the text: Peptides composed of L-amino acids are susceptible to proteolysis, which could shorten their half-life and, thus, their biological activity. To examine this possibility and to determine if specific peptide-viral protein interactions mediate antiviral activity, peptide 1 was synthesized using all D-amino acids, purified to >95% homogeneity, and its antiviral activity and serum stability were compared with a similarly pure preparation of the L-type version of peptide #1. Both L- and D-type peptides were diluted 1:100 in complete growth medium (10% FBS) and mixed with an equal volume of viral supernatant.
# In addition, to compare the serum stability of the L- and D-type peptides, the diluted peptide was incubated at 37° C. for 1 hour, 2 hours and 4 hours before mixing with viral supernatant. The virus-peptide mixture was then used to infect Huh-7.5.1 cells (MOI=0.1). After adsorption for 4 hours at 37° C., the virus-peptide inoculum was removed. The cells were washed 2 times, overlaid with 120 μL fresh growth medium and incubated at 37° C. for 3 days. Cells were lysed and subjected to RNA analysis. The HCV RNA transcript level was measured by real time RT-QPCR and normalized to cellular GAPDH levels. […] Thus, in addition to low immunogenicity and possible oral bioavailability, peptides composed of D-amino acids have the potential therapeutic advantage of enhanced serum stability.
# MTT cytotoxicity assay = type: cell-based; settings: human, hepatocyte cell lines, read-out: LD50 (MTT cytotoxicity)
# Experimental: Peptide cytotoxicity was measured by MTT cytotoxicity assay based on the protocol provided in the ATCC MTT assay kit (Cat #30-1010K). In brief, 5000-10,000 cells were seeded per well in a 96 well plate. Following overnight growth, 100 μL fresh medium plus 20 μL of 2-fold serially diluted peptide was added. Media without peptides was added to at least 3 wells as untreated controls. The cells were then incubated for 72 hours at 37° C., 5% CO2. After this incubation, 1/10 volume of MTT solution ([…] in PBS) was added to each well, and the cells were returned to the incubator. Two hours later, the medium was removed, 150 μL DMSO was added to dissolve the purple precipitate formazan, and the plate was shaken at 150 rpm for 10 minutes. Absorbance at 570 nm less background at 670 nm is a reliable measure of […]. Cytotoxicity (LD50) of individual peptides was defined as the peptide concentration that caused 50% cell death.
# Dengue-2 [3] = experiment: Dengue-2 infection of Vero cells, Intracellular FACS Assay; type: cell-based; settings: 20 μM
# Experimental: Intracellular FACS Assay: Vero cells were seeded for 24 h pre-infection in 6-well plates. Cells were exposed to Dengue-2 in the presence of increasing concentrations of peptide (or DMSO as control). Viruses and peptide were washed away 2 h post-infection. Cells were taken for intracellular staining 3 days post-infection. Cells were stained with appropriate isotype control, Dengue Env, Dengue capsid or tubulin antibodies. Cells were analyzed by FACS.
# HCV [4] = experiment: HCV focus reduction assay; type: cell-based, Hepatitis C virus (JFH-1)
# Experimental: To identify peptides that display antiviral activity against HCV infection, the peptide library was screened by an HCV focus reduction assay. The peptides were constituted in 100% DMSO at a final concentration 10 mg/mL, and stored in −20° C. The peptide stock solution was diluted 1:200 to a final concentration approximately 20 μM in complete DMEM growth medium containing 50 focus forming units (ffu) of HCV. The virus-peptide mixture was transferred to Huh-7.5.1 cells at a density of 8000 cells per well in a 96-well plate. After adsorption for 4 hours at 37° C., the inoculum was removed. The cells were washed 2 times, overlaid with 120 μL fresh growth medium and incubated at 37° C. After 3 days of culture, the cells were fixed with paraformaldehyde and immunostained with antibody against HCV nonstructural protein NS5A. The numbers of HCV foci were counted under fluorescent microscopy and the result is expressed as percentage (%) of mock with no peptide treatment but containing solvent 0.5% DMSO.
# To determine whether the antiviral activity of peptide 1 is dependent on its primary amino acid sequence, four derivative peptides from peptide 1 were synthesized to a purity >95%. The four derivatives having the same composition of amino acids included (1) the reversed the sequence of peptide 1 (also called retro-peptide); (2) scrambled hydrophobic amino acids; (3) scrambled hydrophilic amino acids; and (4) a derivative in which the aspartic acid residues (D) were replaced with proline residues (P). The antiviral activity of the peptides was examined by HCV focus reduction assay at three peptide concentrations: 18 μM, 6 μM and 2 μM, as described above.
# HCV [5] = experiment: Intracellular HCV RNA by real time RT-QPCR after infection of Huh-7.5.1 cells with and without peptide; type: cell-based, Hepatitis C virus (JFH-1)
# Experimental: To accurately quantify the inhibitory effect of the selected peptides on HCV infection, intracellular HCV RNA was measured after infection by real time RT-QPCR with and without peptide treatment. The peptide stock solution was diluted 1:100 and mixed with equal volume of viral supernatant (propagated from day 18 virus preparation post transfection) to a final concentration approximately 20 μM. The virus with peptide or 0.5% DMSO solvent control was then used to infect Huh-7.5.1 cells at a multiplicity of infection (MOI) of 0.1. After an adsorption for 4 hours at 37° C., the inoculum was removed. The cells were washed 2 times, overlaid with 120 μL fresh growth medium and incubated at 37° C. At the indicated time points, total cellular RNA was isolated by the guanidine thiocyanate method. The HCV RNA transcript level was measured by real time RT-QPCR with the primers 5′—
# normalized to cellular GAPDH levels.
# To define the antiviral action of peptide #1 (SEQ ID NO:43), the antiviral activity of a series of N-terminal and C-terminal truncations of peptide 1 was analyzed using the focus reduction assay and by measuring the reduction in intracellular HCV RNA as described.
# HCV [6] = experiment: Binding/attachment/uptake of HCV RNA by Huh-7.5.1 cells; type: cell-based, Hepatitis C virus (JFH-1); settings: 18 μM; 4 hours at 37° C.; cell-associated HCV RNA
# Experimental: To define the mechanism of antiviral activity of peptide #1, its ability to prevent the binding/attachment/uptake by cells of viral RNA in an infectious inoculum cells was examined. Huh-7.5.1 cells were seeded at 8000 cells per well in a 96-well plate. Sixteen hours later, the cells were incubated with HCV at MOI=0.1 in the presence or absence of peptide at a concentration of 18 μM. After adsorption for 4 hours at 37° C., the virus-peptide inoculum was removed. The cells were washed 2 times, lysed and subjected to RNA analysis. The HCV RNA transcript level was measured by real time quantitative polymerase chain reaction (RT-QPCR) assay and normalized to cellular GAPDH levels. Inhibitory activity was quantified by comparing the amount of cell-associated HCV RNA in cells exposed to the virus-peptide inocula versus the virus-DMSO control.
# [7] = Preliminary in vivo toxicity in mice
# Experimental: As a preliminary measurement of the in vivo cytotoxicity of the peptides 1, 2 and 3 (see Table 4) a group of three mice (BALB/c mice, 7 weeks old, about 23 g) were each injected with 92 μg L-type peptide 1 ( ˜4 mg/kg) in 200 μL PBS (spun 14,000 rpm for 3 minutes before injection). In the control group, each of three mice was given 200 μL PBS containing 5% DMSO. The mice were monitored for acute toxicity during the first 3 hours after injection.
# No change in appearance, activity or behavior was observed. The mice were then weighed on days 0, 3, 5, 7 and 10. Peptide-injected mice gained weight at the same rate as the controls.
# Dengue-2 [8] = experiment: Dengue-2 infection of Vero cells, Enzyme-linked Immunosorbent Assay; type: cell-based; settings: for Inhibition of Dengue Infection, α-Capsid 9A7 / Inhibition of Dengue Infection, α-DEN ENV: Vero cells, 5 days
# Experimental: Enzyme-linked Immunosorbent Assay. Vero cells (80,000 cells/well/ml) were seeded for 24 h pre-infection in 24-well plates. Cells were exposed to Dengue-2 (derived from Vero cells) in the presence of increasing concentration of peptide (or DMSO as control). Viruses and peptide were not removed (cells were not washed) throughout the incubation. Infection was analyzed after 5 days using ELISA that measured the amounts of Dengue-2 capsid released in the supernatant of infected Vero cells.
# Dengue-2 [9] = experiment: as above; type: cell-based; settings: 1.25 μM, 5 days
molecule,measurement,setting,value
CC[C@@H](C)[C@@H](NC(=O)[C@@H](CC(=O)O)NC(=O)[C@@H](CCCNC(=N)N)NC(=O)[C@@H](CC(C)C)NC(=O)[C@@H](Cc1c[nH]c2ccccc12)NC(=O)[C@H](N)CO)C(=O)N[C@H](Cc1c[nH]c2ccccc12)C(=O)N[C@H](CC(=O)O)C(=O)N[C@H](Cc1c[nH]c2ccccc12)C(=O)N[C@@H](C(=O)N[C@H](CS)C(=O)N[C@H](CCC(=O)O)C(=O)N[C@@H](C(=O)N[C@H](CC(C)C)C(=O)N[C@H](CO)C(=O)N[C@H](CC(=O)O)C(=O)N[C@H](Cc1ccccc1)C(=O)N[C@H](CCCCN)C(=O)O)C(C)C)[C@H](C)CC [D-2022 peptide],EC50,HCV [1],~1 µM
same,Time entirely stable in 10% FBS at 37° C.,[2],at least 4 hours
same,CC50 at 72 h,MTT cytotoxicity assay; with FBS,36.8 µM
same,CC50 at 72 h,MTT cytotoxicity assay; without FBS,3.7 µM
same,% of Dead cells PI,"Dengue-2 [3]; propidium iodide staining, Vero cells 3 days post-infection",3.83%
CTMLVCGDDLVVICESAG [Peptide 2],Inhibition of HCV infection,HCV [4]; cell culture model of HCV infection,strongly inhibit HCV infection
same,Fold Inhibition,"HCV [4]; inhibition of HCV infection, peptide approximately 20 μM, Huh-7.5.1 cells, 3 days",100.0 fold
same,% of Mock,"HCV [4]; number of HCV foci as % of mock (0.5% DMSO), peptide approximately 20 μM, Huh-7.5.1 cells, 3 days",1.0%
same,Fold inhibition of HCV infection,"HCV [4]; peptide library screen, approximately 20 μM",more than ten-fold
same,HCV RNA fold inhibition 24 h 25 μM,"HCV [5]; 24 h, 25 μM, Huh-7.5.1 cells, MOI 0.1, normalized to GAPDH",86 fold
same,HCV RNA fold inhibition 72 h 25 μM,"HCV [5]; 72 h, 25 μM, Huh-7.5.1 cells, MOI 0.1, normalized to GAPDH",40 fold
same,Blocking of viral binding/attachment/uptake,HCV [6],significantly blocks viral binding/attachment/uptake
same,In vivo toxicity observation,"[7]; 92 μg ( ˜4 mg/kg) in 200 μL PBS, acute toxicity first 3 hours, weight to day 10","Peptides 1, 2 and 3 are Nontoxic in C57BL/6 Mice"
same,Weight(g) (d.0),"[7]; day 0, ˜4 mg/kg injected",25.3 g
same,Weight(g) (d.3),[7]; day 3,25.6 g
same,Weight(g) (d.5),[7]; day 5,25.9 g
same,Weight(g) (d.7),[7]; day 7,25.9 g
same,Weight(g) (d.10),[7]; day 10,25.6 g
SWLRDIWDWICEVL [^C-14mer],Focus Reduction (72 h),"HCV [4]; 72 h, working concentration 18.4-27.5 μM per peptide, Mock 51",0
same,Fold Inhibition on HCV RNA (24 h),"HCV [5]; 24 h, working concentration 18.4-27.5 μM per peptide",20274.7 fold
same,Fold Inhibition on HCV RNA (72 h),"HCV [5]; 72 h, working concentration 18.4-27.5 μM per peptide",237172.4 fold
same,"Inhibition of Dengue Infection, α-Capsid 9A7",Dengue-2 [8]; 1.25 μM,11.4%
same,"Inhibition of Dengue Infection, α-Capsid 9A7",Dengue-2 [8]; 5 μM,22.7%
same,"Inhibition of Dengue Infection, α-DEN ENV",Dengue-2 [8]; 5 μM,29.65%
same,"Inhibition of Dengue Infection, α-Capsid 9A7",Dengue-2 [8]; 20 μM,98.3%
same,"Inhibition of Dengue Infection, α-DEN ENV",Dengue-2 [8]; 20 μM,97.8%
same,Inhibition of Dengue viral infection as detected by ELISA,"Dengue-2 [8]; FIG. 17, 20 μM",~100%
same,Inhibition of Dengue viral infection as detected by FACS,Dengue-2 [3]; FIG. 18,~100%
same,"Inhibition of Dengue Infection, α-DEN ENV",Dengue-2 [9],0%
